Data published in patent publication EP0197829A1, “5H-pyrido[3',4':4,5]pyrrolo[3,2-c]pyridine derivatives, process for their preparation and their antitunour activity” (SANOFI, priority 1985, dated 1986).
Read-outs that look alike come from different tables or passages of the source.

Tests used:
[1] = test system: leucémie P 388; assay type: in vivo, souris hybrides CDF1
Text: (§1) L'activité antitumorale a été testée in vivo sur différentes tumeurs selon le protocole général suivant : Toutes les souris mâles ou femelles sont inoculées par voie intrapéritonéale au jour Jo avec une quantité déterminée de cellules tumorales viables, variable selon la tumeur.
(§2) Elles sont ensuite réparties en différents lots. Chaque lot correspondant aux animaux traités par le produit à tester à une dose déterminée est composé de lO souris. Dans ce cas, le produit à tester est dissous dans l'eau distillée et il est administré, pendant n jours (J1-Jn) variables selon le protocole choisi, par voie intrapéritonéale à raison de 0,1 ml par lO g de poids des souris traitées, les doses du produit administré étant précisées dans les tableaux ci-dessous.
(§3) Le lot "Contrôle négatif", correspondant aux animaux qui ne sont pas traités par un produit, comprend 2 √N animaux, N étant égal au nombre total de souris traitées par un produit.
(§4) Enfin, tous lés essais sont conduits parallèlement à l'étude d'un lot appelé "Contrôle positif" de 10 animaux qui est traité par une molécule active, variable selon le protocole choisi, dans les mêmes conditions que les lots traités par le produit à tester, afin de valider l'essai.
(§5) L'activité antitumorale est évaluée en considérant l'augmentation du temps de survie des animaux traités par rapport à celui des animaux du lot "Contrôle négatif" selon la formule : • Jour médian de survie des animaux traités à une T/C = dose donnée de produit x 100 • Jour médian de survie des animaux "Contrôle négatif"
(§6) Un composé est considéré comme étant actif lorsque la valeur du rapport T/C est égale ou supérieure à 125 % selon le protocole retenu. Il est toxique lorsque cette valeur est égale ou inférieure à 85 %. Le produit est également considéré comme toxique lorsque la variation pondérale, exprimée en grammes et calculée par la formule : Poids moyen du lot mesuré au jour 5 - poids moyen du même lot au jour 1, est égale ou inférieure à -4g . a) Test de la leucémie P 388 (GERAN et al., Cancer Chemother, 1972, 2, 07-57).
Les essais sont effectués avec des souris hybrides CDF1 inoculées par voie intrapéritonéale avec […] leucémiques de la lignée P 388. Le composé à tester est administré pendant 5 jours (Jl-J5). Le contrôle positif du test est le 5-fluorouracile qui est administré dans les mêmes conditions.
[…] Un composé est considéré comme étant actif lorsque le rapport T/C est supérieur à 127 %.

[2] = test system: réticulosarcome M5-M5076; assay: M5-M5076 reticulosarcoma test in vivo; parameters: species or system souris hybrides BDF1; details: for Survivants: at day J 75
Text: as §1, §2, §3, §4, §5, §6
d) Test du réticulosarcome M5-M5076.
Les essais sont effectués avec des souris hybrides BDF1 inoculées avec 10^6 cellules de la lignée M5-M5076. Le composé à tester est administré 5 fois successivement de façon séquentielle (Jl, 5, 9, 13, 17). Le contrôle positif du test est le cyclophosphamide administré dans les mêmes conditions. Le nombre d'animaux survivants est évalué au jour J 75. Un composé est considéré comme actif lorsque le rapport T/C est supérieur ou égal à 125 %.

[3] = test system: leucémie L 1210; assay: L 1210 leukemia test in vivo; parameters: species or system souris hybrides CDF1; details: for Survivants: at day J 60
Text: as §1, §2, §3, §4, §5, §6
b) Test de la leucémie L 1210 (GERAN et al., Cancer Chemother, 1972, 2, 07-57).
Les essais sont effectués avec des souris hybrides CDF1 inoculées avec 10^5 cellules leucémiques de la lignée L 1210. Le composé à tester est administré pendant 5 jours (J1-J5). Le contrôle positif du test est le 5-fluorouracile administré dans les mêmes conditions. Le nombre d'animaux survivants est évalué au jour J 60. Un composé est considéré comme étant actif lorsque le rapport T/C est supérieur ou égal à 125 %.

[4] = 5 mg/kg i.p. J1-J5, at day J 40
[5] = 10 mg/kg i.p. J1-J5, at day J 40
[6] = 20 mg/kg i.p. J1-J5, at day J 40
[7] = 40 mg/kg i.p. J1-J5, at day J 40
[8] = 80 mg/kg i.p. J1-J5, at day J 40
[9] = 1,25 mg/kg i.p. J1-J5, at day J 40
[10] = 2,5 mg/kg i.p. J1-J5, at day J 40
[11] = 100 mg/kg i.p. J1, 5, 9, 13, 17
[12] = 150 mg/kg i.p. J1, 5, 9, 13, 17

## CCN(CC)CCCNc1ncc(C)c2c1c1cnccc1n2C [Dérivé N° 4, [(diéthylamino-3 propyl-1)amino]-1 diméthyl-4,5 5-H pyrido[3',4':4,5]pyrrolo[3,2-c]pyridine]
[1]; 5 mg/kg i.p. J1-J5
  Jour médian de survie: 14,25
  T/C %: 130%
[1]; [4]
  Survivants: 0/10
[1]; 10 mg/kg i.p. J1-J5
  Jour médian de survie: 16,13
  T/C %: 147%
[1]; [5]
  Survivants: 0/10
[1]; 20 mg/kg i.p. J1-J5
  Jour médian de survie: 18,0
  T/C %: 164%
[1]; [6]
  Survivants: 0/10
[1]; 40 mg/kg i.p. J1-J5
  Jour médian de survie: 18,75
  T/C %: 172%
[1]; [7]
  Survivants: 0/10
[1]; 50 mg/kg i.p. J1-J5
  Jour médian de survie: 25
  T/C %: 207%
[1]; 50 mg/kg i.p. J1-J5, à J 42
  Survivants: 3/10 à J 42
[1]; 80 mg/kg i.p. J1-J5
  Jour médian de survie: 8,9
  T/C %: 81%
[1]; [8]
  Survivants: 0/10
[1]; 1,25 mg/kg i.p. J1-J5
  Jour médian de survie: 12,6
  T/C %: 115%
[1]; [9]
  Survivants: 0/10
[1]; 2,5 mg/kg i.p. J1-J5
  Jour médian de survie: 14,25
  T/C %: 130%
[1]; [10]
  Survivants: 0/10
[2]; 10 mg/kg i.p. J1, 5, 9, 13, 17
  Jour médian de survie: 28,3
  T/C %: 108%
  Survivants: 0
[2]; 25 mg/kg i.p. J1, 5, 9, 13, 17
  Jour médian de survie: 41,75
  T/C %: 159%
  Survivants: 1
[2]; 50 mg/kg i.p. J1, 5, 9, 13, 17
  Jour médian de survie: 53,0
  T/C %: 202%
  Survivants: 4
[2]; [11]
  Jour médian de survie: 48,0
  T/C %: 182%
  Survivants: 2
[2]; [12]
  Jour médian de survie: 14,0
  T/C %: 53%
  Survivants: 0
[3]; 5 mg/kg i.p. J1-J5
  Jour médian de survie: 12,75
  T/C %: 138%
  Survivants: 0
[3]; 15 mg/kg i.p. J1-J5
  Jour médian de survie: 13,75
  T/C %: 149%
  Survivants: 0
[3]; 30 mg/kg i.p. J1-J5
  Jour médian de survie: 17,25
  T/C %: 188%
  Survivants: 0
[3]; 60 mg/kg i.p. J1-J5
  Jour médian de survie: 18,0
  T/C %: 196%
  Survivants: 1
[3]; 80 mg/kg i.p. J1-J5
  Jour médian de survie: 9,1
  T/C %: 99%
  Survivants: 0
[3]; 2,5 mg/kg i.p. J1-J5
  Jour médian de survie: 10,9
  T/C %: 118%
  Survivants: 0

## Cc1cnc(NCCCN(C)C)c2c1[nH]c1ccncc12 [Dérivé N° 3, [(diméthylamino-3 propyl-1)amino]-1 méthyl-4 5-H pyrido[3',4':4,5]pyrrolo[3,2-c]pyridine]
[1]; 5 mg/kg i.p. J1-J5
  Jour médian de survie: 16,25
  T/C %: 147%
[1]; [4]
  Survivants: 0
[1]; 10 mg/kg i.p. J1-J5
  Jour médian de survie: 17,75
  T/C %: 161%
[1]; [5]
  Survivants: 0
[1]; 20 mg/kg i.p. J1-J5
  Jour médian de survie: 20,0
  T/C %: 181%
[1]; [6]
  Survivants: 0
[1]; 40 mg/kg i.p. J1-J5
  Jour médian de survie: 19,3
  T/C %: 175%
[1]; [7]
  Survivants: 1
[1]; 80 mg/kg i.p. J1-J5
  Jour médian de survie: 7,3
  T/C %: 66%
[1]; [8]
  Survivants: 0
[1]; 0,625 mg/kg i.p. J1-J5
  Jour médian de survie: 13,1
  T/C %: 119%
[1]; 0,625 mg/kg i.p. J1-J5, at day J 40
  Survivants: 0
[1]; 1,25 mg/kg i.p. J1-J5
  Jour médian de survie: 14,1
  T/C %: 128%
[1]; [9]
  Survivants: 0
[1]; 2,5 mg/kg i.p. J1-J5
  Jour médian de survie: 15,0
  T/C %: 136%
[1]; [10]
  Survivants: 0
[2]; 25 mg/kg i.p. J1, 5, 9, 13, 17
  Jour médian de survie: 51,0
  T/C %: 195%
  Survivants: 1
[2]; 50 mg/kg i.p. J1, 5, 9, 13, 17
  Jour médian de survie: 45,0
  T/C %: 172%
  Survivants: 0
[2]; 75 mg/kg i.p. J1, 5, 9, 13, 17
  Jour médian de survie: 41,7
  T/C %: 159%
  Survivants: 0
[2]; [11]
  Jour médian de survie: 44,7
  T/C %: 171%
  Survivants: 0
[2]; [12]
  Jour médian de survie: 10,0
  T/C %: 38%
  Survivants: 0
[3]; 5 mg/kg i.p. J1-J5
  Jour médian de survie: 14,0
  T/C %: 152%
  Survivants: 0
[3]; 10 mg/kg i.p. J1-J5
  Jour médian de survie: 16,25
  T/C %: 177%
  Survivants: 0
[3]; 20 mg/kg i.p. J1-J5
  Jour médian de survie: 15,6
  T/C %: 170%
  Survivants: 0
[3]; 40 mg/kg i.p. J1-J5
  Jour médian de survie: 9,25
  T/C %: 100%
  Survivants: 0
[3]; 50 mg/kg i.p. J1-J5
  Jour médian de survie: 8,2
  T/C %: 89%
  Survivants: 0
[3]; 1,25 mg/kg i.p. J1-J5
  Jour médian de survie: 11,75
  T/C %: 128%
  Survivants: 0
[3]; 2,5 mg/kg i.p. J1-J5
  Jour médian de survie: 12,90
  T/C %: 140%
  Survivants: 0
